This is an account of results in patent US10059717B2, “Urea compounds containing 3,4-dihydropyrimido[4,5-D]pyrimidin-2(1H)-one skeleton as protein kinase inhibitors” (KOREA INSTITUTE OF SCIENCE AND TECHNOLOGY, priority 2016, dated 2018).

Molecules are shown by their SMILES. Bounds are passed on as bounds.

One experiment deals with ACK1 (Homo sapiens, UniProt Q07912). The experiment in a line: ACK1 kinase inhibitory activity. As to conditions: read-out: Kinase inhibitory efficacy, GI50 ACK1. The class given is biochemical. The procedure: (§1) GI50 values were calculated by measuring the inhibitory efficacy of the compounds of the present invention against both GCK and ACK1 kinases.
The next experiment relates to Ba/F3 (N-Ras G12D). The experiment in a line: Proliferation inhibitory activity, Ba/F3. The format is cell-based. As to conditions: Mus musculus, BaF3; Ba/F3 (N-Ras G12D) cell line; read-out: Proliferation inhibitory efficacy (GI50, μM) Ba/F3 (N-Ras G12D). The procedure:
(§2) GI50 values were calculated by measuring the proliferation inhibitory efficacy of the compounds of the present invention on mt-NRAS (G12D) Ba/F3, U937 (wt-NRAS) and OCI-AML3 (mt-NRAS) cell lines.

In the next experiment the test system is OCI-AML3 (N-Ras Q61L). The experiment in a line: Proliferation inhibitory activity, OCI-AML3. The class given is cell-based. As to conditions: Homo sapiens, OCI-AML-3; OCI-AML3 (N-Ras Q61L) cell line; read-out: Proliferation inhibitory efficacy (GI50, μM) OCI-AML3 (N-Ras Q61L). The procedure:
as §2
Accordingly, the compounds of the present invention are particularly effective as a therapeutic agent for acute myelogenous leukemia (AML).

Another experiment has as its target T1, GCK (Homo sapiens, UniProt Q12851).
T1 sequence (Q12851 1-820): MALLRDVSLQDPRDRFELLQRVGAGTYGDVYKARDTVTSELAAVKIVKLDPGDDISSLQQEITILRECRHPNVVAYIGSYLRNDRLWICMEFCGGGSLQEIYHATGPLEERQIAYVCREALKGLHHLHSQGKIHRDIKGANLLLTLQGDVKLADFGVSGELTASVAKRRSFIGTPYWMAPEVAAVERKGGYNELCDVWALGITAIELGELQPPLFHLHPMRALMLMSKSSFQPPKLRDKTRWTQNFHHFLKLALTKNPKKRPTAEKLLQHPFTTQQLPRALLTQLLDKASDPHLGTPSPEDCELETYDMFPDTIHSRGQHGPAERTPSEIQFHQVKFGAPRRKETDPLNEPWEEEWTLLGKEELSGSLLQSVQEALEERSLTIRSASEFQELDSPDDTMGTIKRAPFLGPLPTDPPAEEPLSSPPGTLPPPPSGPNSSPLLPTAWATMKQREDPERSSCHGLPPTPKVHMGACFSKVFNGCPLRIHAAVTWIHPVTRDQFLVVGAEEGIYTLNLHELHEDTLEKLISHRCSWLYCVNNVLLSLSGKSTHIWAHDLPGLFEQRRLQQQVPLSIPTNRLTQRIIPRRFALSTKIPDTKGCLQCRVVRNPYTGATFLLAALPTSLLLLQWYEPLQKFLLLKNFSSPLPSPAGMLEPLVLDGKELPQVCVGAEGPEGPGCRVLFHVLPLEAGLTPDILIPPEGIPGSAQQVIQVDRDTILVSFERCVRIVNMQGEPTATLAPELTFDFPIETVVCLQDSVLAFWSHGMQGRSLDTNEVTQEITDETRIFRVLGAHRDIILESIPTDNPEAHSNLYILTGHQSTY
The experiment in a line: GCK kinase inhibitory activity. The class given is biochemical. As to conditions: read-out: Kinase inhibitory efficacy, GI50 GCK. The procedure:
as §1

For another experiment, the system named is U937 (N-Ras WT). The experiment in a line: Proliferation inhibitory activity, U937. The class given is cell-based. To be noted: Homo sapiens, U-937; U937 (N-Ras WT) cell line; read-out: Proliferation inhibitory efficacy (GI50, μM) U937 (N-Ras WT). The procedure: as §2

Chain of ACK1 (Q07912 whole entry): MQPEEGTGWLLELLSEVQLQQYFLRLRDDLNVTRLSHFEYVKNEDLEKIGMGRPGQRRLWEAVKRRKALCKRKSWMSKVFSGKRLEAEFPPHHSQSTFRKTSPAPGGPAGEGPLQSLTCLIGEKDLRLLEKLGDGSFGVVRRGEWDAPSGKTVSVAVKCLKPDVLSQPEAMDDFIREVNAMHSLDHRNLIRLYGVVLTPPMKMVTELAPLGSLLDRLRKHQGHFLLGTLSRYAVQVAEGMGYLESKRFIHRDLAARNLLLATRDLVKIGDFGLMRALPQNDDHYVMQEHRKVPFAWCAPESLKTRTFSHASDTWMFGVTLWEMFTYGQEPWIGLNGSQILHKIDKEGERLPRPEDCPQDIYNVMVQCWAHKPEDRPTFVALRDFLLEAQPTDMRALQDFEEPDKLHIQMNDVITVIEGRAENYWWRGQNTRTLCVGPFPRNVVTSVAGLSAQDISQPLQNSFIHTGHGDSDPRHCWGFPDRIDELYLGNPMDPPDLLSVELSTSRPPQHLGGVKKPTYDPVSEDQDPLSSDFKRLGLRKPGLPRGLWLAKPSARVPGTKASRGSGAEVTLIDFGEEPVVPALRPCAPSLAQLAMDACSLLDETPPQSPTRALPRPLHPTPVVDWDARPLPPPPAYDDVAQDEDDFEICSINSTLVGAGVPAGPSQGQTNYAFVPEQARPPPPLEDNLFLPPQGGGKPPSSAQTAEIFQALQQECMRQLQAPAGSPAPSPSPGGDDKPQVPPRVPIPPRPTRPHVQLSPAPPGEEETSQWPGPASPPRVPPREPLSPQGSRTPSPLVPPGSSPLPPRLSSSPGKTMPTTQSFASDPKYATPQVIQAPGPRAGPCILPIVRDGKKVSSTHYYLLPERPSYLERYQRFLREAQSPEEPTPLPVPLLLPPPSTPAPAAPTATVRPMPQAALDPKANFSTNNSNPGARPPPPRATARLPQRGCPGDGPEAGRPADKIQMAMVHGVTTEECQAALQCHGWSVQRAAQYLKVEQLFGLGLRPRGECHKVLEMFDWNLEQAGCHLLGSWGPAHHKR

For the compound `COc1ccc(NC(=O)Nc2ccc(C)c(N3Cc4cnc(Nc5ccc(C)nc5)nc4N(C)C3=O)c2)cc1` [Compound No. 10, 1-(4-methoxyphenyl)-3-(4-methyl-3-(1-methyl-7-((6-methylpyridin-3-yl)amino)-2-oxo-1,4-dihydropyrimido[4,5-d]pyrimidin-3(2H)-yl)phenyl)urea], the GI50 was 30 to 100 nM at ACK1; < 0.5 µM in the experiment with Ba/F3 (N-Ras G12D); < 0.5 µM in the experiment with OCI-AML3 (N-Ras Q61L); 30 to 100 nM at GCK; ≥ 5 µM in the experiment with U937 (N-Ras WT).
Turning to `CNC(=O)c1ccc(Nc2ncc3c(n2)N(C)C(=O)N(c2cc(NC(=O)Nc4ccccc4OC)ccc2C)C3)cn1` [Compound No. 15], the GI50 on ACK1 was < 30 nM; with Ba/F3 (N-Ras G12D), < 0.5 µM; in the experiment with OCI-AML3 (N-Ras Q61L), < 0.5 µM; at GCK, 100 to 300 nM; with U937 (N-Ras WT) it was ≥ 5 µM.
Turning to `COc1ccccc1NC(=O)Nc1ccc(C)c(N2Cc3cnc(Nc4ccc(C)nc4)nc3N(C)C2=O)c1` [Compound No. 1, 1-(2-methoxyphenyl)-3-(4-methyl-3-(1-methyl-7-((6-methylpyridin-3-yl)amino)-2-oxo-1,4-dihydropyrimido[4,5-d]pyrimidin-3(2H)-yl)phenyl)urea], the GI50 is < 30 nM on ACK1; < 0.5 µM in the experiment with Ba/F3 (N-Ras G12D); < 0.5 µM in the experiment on OCI-AML3 (N-Ras Q61L); 30 to 100 nM on GCK; ≥ 5 µM with U937 (N-Ras WT).
Consider `Cc1ccc(Nc2ncc3c(n2)N(C)C(=O)N(c2cc(NC(=O)Nc4cccc(Cl)c4Cl)ccc2C)C3)cn1` [Compound No. 6, 1-(2,3-dichlorophenyl)-3-(4-methyl-3-(1-methyl-7-((6-methylpyridin-3-yl)amino)-2-oxo-1,4-dihydropyrimido[4,5-d]pyrimidin-3(2H)-yl)phenyl)urea], for which the GI50 on ACK1 was < 30 nM; with Ba/F3 (N-Ras G12D), 0.5 to 3 µM; with OCI-AML3 (N-Ras Q61L), < 0.5 µM; on GCK, 100 to 300 nM; with U937 (N-Ras WT) it was ≥ 5 µM.
Taken in the same sequence, the figures for `Cc1ccc(Nc2ncc3c(n2)N(C)C(=O)N(c2cc(NC(=O)Nc4cccc(C(F)(F)F)c4)ccc2C)C3)cn1` [Compound No. 7, 1-(4-methyl-3-(1-methyl-7-((6-methylpyridin-3-yl)amino)-2-oxo-1,4-dihydropyrimido[4,5-d]pyrimidin-3(2H)-yl)phenyl)-3-(3-(trifluoromethyl)phenyl)urea] were < 30 nM, < 0.5 µM, 0.5 to 3 µM, 100 to 300 nM and ≥ 5 µM.
For `CCN1CCN(c2ccc(Nc3ncc4c(n3)N(C)C(=O)N(c3cc(NC(=O)Nc5ccccc5OC)ccc3C)C4)cc2)CC1` [Compound No. 11, 1-(3-(7-((4-(4-ethylpiperazin-1-yl)phenyl)amino)-1-methyl-2-oxo-1,4-dihydropyrimido[4,5-d]pyrimidin-3(2H)-yl)-4-methylphenyl)-3-(2-methoxyphenyl)urea], in that order: < 30 nM, < 0.5 µM, < 0.5 µM, < 30 nM and 0.5 to 3 µM.
As to `Cc1ccc(Nc2ncc3c(n2)N(C)C(=O)N(c2cc(NC(=O)Nc4ccccc4OC(F)(F)F)ccc2C)C3)cn1` [Compound No. 3, 1-(4-methyl-3-(1-methyl-7-((6-methylpyridin-3-yl)amino)-2-oxo-1,4-dihydropyrimido[4,5-d]pyrimidin-3(2H)-yl)phenyl)-3-(2-(trifluoromethoxy)phenyl)urea], the GI50 was < 30 nM on ACK1; 3 to 5 µM with Ba/F3 (N-Ras G12D); 0.5 to 3 µM in the experiment on OCI-AML3 (N-Ras Q61L); ≥ 300 nM at GCK; ≥ 5 µM in the experiment on U937 (N-Ras WT).
Consider `Cc1ccc(Nc2ncc3c(n2)N(C)C(=O)N(c2cc(NC(=O)Nc4ccc(Cl)c(C(F)(F)F)c4)ccc2C)C3)cn1` [Compound No. 9, 1-(4-chloro-3-(trifluoromethyl)phenyl)-3-(4-methyl-3-(1-methyl-7-((6-methylpyridin-3-yl)amino)-2-oxo-1,4-dihydropyrimido[4,5-d]pyrimidin-3(2H)-yl)phenyl)urea], for which the GI50 was 30 to 100 nM at ACK1; 0.5 to 3 µM in the experiment with Ba/F3 (N-Ras G12D); < 0.5 µM with OCI-AML3 (N-Ras Q61L); 100 to 300 nM at GCK; ≥ 5 µM in the experiment with U937 (N-Ras WT).
Taken in the same sequence, the figures for `COc1cccc(NC(=O)Nc2ccc(C)c(N3Cc4cnc(Nc5ccc(C)nc5)nc4N(C)C3=O)c2)c1` [Compound No. 8, 1-(3-methoxyphenyl)-3-(4-methyl-3-(1-methyl-7-((6-methylpyridin-3-yl)amino)-2-oxo-1,4-dihydropyrimido[4,5-d]pyrimidin-3(2H)-yl)phenyl)urea] were < 30 nM, < 0.5 µM, 0.5 to 3 µM, 30 to 100 nM and ≥ 5 µM.
For `COc1ccccc1NC(=O)Nc1ccc(C)c(N2Cc3cnc(Nc4ccc(N5CCC(C(N)=O)CC5)nc4)nc3N(C)C2=O)c1` [Compound No. 18, 1-(5-((6-(5-(3-(2-methoxyphenyl)ureido)-2-methylphenyl)-8-methyl-7-oxo-5,6,7,8-tetrahydropyrimido[4,5-d]pyrimidin-2-yl)amino)pyridin-2-yl)piperidin-4-carboxamide], in that order: 30 to 100 nM, < 0.5 µM, < 0.5 µM, < 30 nM and ≥ 5 µM.
For `Cc1ccc(Nc2ncc3c(n2)N(C)C(=O)N(c2cc(NC(=O)Nc4ccccc4C(F)(F)F)ccc2C)C3)cn1` [Compound No. 4, 1-(4-methyl-3-(1-methyl-7-((6-methylpyridin-3-yl)amino)-2-oxo-1,4-dihydropyrimido[4,5-d]pyrimidin-3(2H)-yl)phenyl)-3-(2-(trifluoromethyl)phenyl)urea], in that order: < 30 nM, 0.5 to 3 µM, < 0.5 µM, ≥ 300 nM and ≥ 5 µM.
On to `Cc1ccc(Nc2ncc3c(n2)N(C)C(=O)N(c2cc(NC(=O)Nc4ccccc4C)ccc2C)C3)cn1` [Compound No. 5, 1-(4-methyl-3-(1-methyl-7-((6-methylpyridin-3-yl)amino)-2-oxo-1,4-dihydropyrimido[4,5-d]pyrimidin-3(2H)-yl)phenyl)-3-(o-tolyl)urea], for which the GI50 was < 30 nM on ACK1; 0.5 to 3 µM in the experiment with Ba/F3 (N-Ras G12D); 0.5 to 3 µM in the experiment with OCI-AML3 (N-Ras Q61L); 100 to 300 nM at GCK; ≥ 5 µM in the experiment on U937 (N-Ras WT).
For `COc1ccccc1NC(=O)Nc1ccc(C)c(N2Cc3cnc(Nc4cnn(C)c4)nc3N(C)C2=O)c1` [Compound No. 12, 1-(2-methoxyphenyl)-3-(4-methyl-3-(1-methyl-7-((1-methy-1H-pyrazol-4-yl)amino)-2-oxo-1,4-dihydropyrimido[4,5-d]pyrimidin-3(2H)-yl)phenyl)urea], the GI50 at ACK1 is < 30 nM; with Ba/F3 (N-Ras G12D) it was < 0.5 µM; with OCI-AML3 (N-Ras Q61L) it was < 0.5 µM; on GCK, < 30 nM; in the experiment with U937 (N-Ras WT) it was ≥ 5 µM.
Consider `COc1ccccc1NC(=O)Nc1ccc(C)c(N2Cc3cnc(Nc4ccc(C(=O)NC5CC5)nc4)nc3N(C)C2=O)c1` [Compound No. 16, N-cyclopropyl-5-((6-(5-(3-(2-methoxyphenyl)ureido)-2-methylphenyl)-8-methyl-7-oxo-5,6,7,8-tetrahydropyrimido[4,5-d]pyrimidin-2-yl)amino)picolinamide], for which the GI50 was < 30 nM on ACK1; < 0.5 µM in the experiment on Ba/F3 (N-Ras G12D); < 0.5 µM in the experiment with OCI-AML3 (N-Ras Q61L); 100 to 300 nM on GCK; ≥ 5 µM with U937 (N-Ras WT).
In the case of `COc1ccccc1NC(=O)Nc1ccc(C)c(N2Cc3cnc(Nc4ccc(N5CCN(C(C)=O)CC5)nc4)nc3N(C)C2=O)c1` [Compound No. 13, 1-(3-(7-((6-(4-acetylpiperazin-1-yl)pyridin-3-yl)amino)-1-methyl-2-oxo-1,4-dihydropyrimido[4,5-d]pyrimidin-3(2H)-yl)-4-methylphenyl)-3-(2-methoxyphenyl)urea], the GI50 is < 30 nM at ACK1; < 0.5 µM in the experiment with Ba/F3 (N-Ras G12D); < 0.5 µM in the experiment on OCI-AML3 (N-Ras Q61L); < 30 nM at GCK; ≥ 5 µM with U937 (N-Ras WT).
